Data on 5 molecules can be found in US20040248919A1, “Fluorinated trienes and their use as rxr modulators” (priority 2001, published 2004).

For one data set, the target named is T1, RXRγ (UniProt P28705).
T1 sequence (P28705 1-463): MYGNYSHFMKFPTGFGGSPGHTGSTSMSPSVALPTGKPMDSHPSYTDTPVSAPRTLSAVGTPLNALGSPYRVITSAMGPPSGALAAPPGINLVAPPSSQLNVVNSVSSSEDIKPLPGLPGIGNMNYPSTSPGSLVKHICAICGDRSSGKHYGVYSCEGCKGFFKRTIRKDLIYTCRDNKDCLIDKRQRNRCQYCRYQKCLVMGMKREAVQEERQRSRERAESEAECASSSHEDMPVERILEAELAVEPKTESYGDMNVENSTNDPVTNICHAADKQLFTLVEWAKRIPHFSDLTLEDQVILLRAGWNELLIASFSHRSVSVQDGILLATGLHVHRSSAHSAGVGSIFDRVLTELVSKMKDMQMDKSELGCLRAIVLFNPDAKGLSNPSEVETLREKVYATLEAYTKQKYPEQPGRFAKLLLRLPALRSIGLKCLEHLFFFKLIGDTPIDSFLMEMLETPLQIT
As to the kind of experiment: RXR binding, competition with tritiated retinoid. The conditions noted are these: read-out: RXR Binding gamma. From the text:
(§1) In addition to the cotransfection data, the binding of selected compounds of the present invention to the RAR and RXR receptors was also investigated according to the methodology described in M. F., Boehm, et al., “Synthesis and Structure-Activity Relation-ships of Novel Retinoid X Receptor Selective Retinoids”, 37 J. Med. Chem., 2930 (1994); M. F. Boehm, et al., “Synthesis of High Specific Activity [^3H]-9-cis Retinoic Acid and Its Application for Identifying Retinoids with Unusual Binding Properties”, 37 J. Med. Chem., 408 (1994), and E. A. Allegretto, et al., “Characterization and Comparison of Hormone-Binding and Transactivation Properties of Retinoic Acid and Retinoid X Receptors Expressed in Mammalian Cells and Yeast”, 268 J. Biol. Chem., 22625 (1993), the disclosures of which are herein incorporated by reference.
(§2) Non-specific binding was defined as that binding remaining in the presence of 500 nM of the appropriate unlabelled compound. At the end of the incubation period, bound ligand was separated from free. The amount of bound tritiated retinoid was determined by liquid scintillation counting of an aliquot (700 μL) of the supernatant fluid or the hydroxylapatite pellet.
(§3) After correcting for non-specific binding, IC50 values were determined. The IC50 value is defined as the concentration of competing ligand needed to reduce specific binding by 50%. The IC50 value was determined graphically from a log-logit plot of the data. The Ki values were determined by application of the Cheng-Prussof equation to the IC50 values, the labeled ligand concentration and the Kd of the labeled ligand.

For the next data set, the target named is T2, RXRα (Homo sapiens, UniProt P19793).
T2 sequence (P19793 1-462): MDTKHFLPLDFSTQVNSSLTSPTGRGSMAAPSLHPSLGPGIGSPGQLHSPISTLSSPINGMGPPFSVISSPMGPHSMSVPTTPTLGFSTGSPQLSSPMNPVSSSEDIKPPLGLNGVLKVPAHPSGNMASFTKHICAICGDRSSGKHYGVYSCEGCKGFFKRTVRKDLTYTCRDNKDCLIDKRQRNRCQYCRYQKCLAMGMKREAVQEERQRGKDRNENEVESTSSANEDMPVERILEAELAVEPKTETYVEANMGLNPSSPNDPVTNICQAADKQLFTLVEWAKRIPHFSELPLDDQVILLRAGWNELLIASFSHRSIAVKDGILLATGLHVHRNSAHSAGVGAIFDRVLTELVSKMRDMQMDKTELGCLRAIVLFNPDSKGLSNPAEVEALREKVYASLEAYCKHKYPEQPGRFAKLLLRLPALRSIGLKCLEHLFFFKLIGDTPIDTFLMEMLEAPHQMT
In words: RXR binding, competition with tritiated retinoid. The following applies: read-out: RXR Binding alpha.
Text: as §1, §2, §3

Data set [1] can be described thus: Metabolic stability in mouse liver microsomes. The class given is in vitro ADME. The following applies: 20 min incubation, 37° C., NADPH. As for the experimental part: A solution containing 1130 μL of 100 mM sodium phosphate buffer, pH 7.4, 20 μL of a 25 mg/mL CD-1 mouse liver microsomal suspension in 100 mM sodium phosphate buffer, pH 7.4, and 830 μL of a 4 mg/mL NADPH solution in 100 mM sodium phosphate buffer, pH 7.4, was prepared in a glass test tube, mixed on a vortexer, and incubated in a shaking water bath at 37° C. for 3 min. A test compound was dissolved in 10% DMSO/90% methanol to a final concentration of 400 μM, and 20 μL was added to the above solution after the 3 min. incubation. The solution was mixed on a vortexer, and incubated at 37° C. in the shaking water bath. After 0, 5, 10 and 20 min incubation, 75 μL aliquots of the incubation solution were removed in triplicate and each aliquot was added to a 75 μL solution that contained 2 μM of an internal standard in 50% acetonitrile/50% 20 mM ZnSO4 and 20 mM NaOH in water. Samples were mixed on a vortexer, and centrifuged at 10° C. for 25 min at 3000 rpm. The supernatant was separated from the microsomal pellet and analyzed for the test compound by electrospray negative ionization using a Micromass Platform LCZ mass spectrometer equipped with a Shimadzu 10AD VP pump, and Shimadzu 10AD UP autosampler. […] Peak area ratios of the test compound to internal standard at each time point were compared to the 0 min. time point to assess metabolic stability. […]

Consider `C/C(=C/C=C(F)/C(C)=C/C(=O)O)c1cc(C(C)(C)C)cc(C(C)(C)C)c1OCC(F)F` [Example 1, 7-[3,5-di-tert-butyl-2-(2,2-difluoroethoxy)-phenyl]4-fluoro-3-methyl-octa-2,4,6-trienoic acid], for which the Ki worked out at 21 nM on RXRγ and 4.8 nM at RXRα. For the same molecule, the “Metabolic stability (mouse microsomes): Difference from reference compound at 20 min.” value in data set [1] came to 29.295%.
`C/C(=C/C(F)=C/C(C)=C/C(=O)O)c1cc(C(C)(C)C)cc(C(C)(C)C)c1OCC(F)F` [Example 2, 7-[3,5-Di-tert-butyl-2-(2,2-difluoroethoxy)-phenyl]-5-fluoro-3-methyl-octa-2,4,6-trienoic acid]: the Ki at RXRγ was 29 nM; at RXRα it was 8.2 nM. The “Metabolic stability (mouse microsomes): Difference from reference compound at 20 min.” value in data set [1] was determined as 18.300%.
On to `CCCCOc1c(\C(C)=C/C=C/C(=C/C(=O)O)C(F)(F)F)cc(C(C)C)cc1C(C)C` [Example 3, (2Z,4E,6Z)-7-(2-Butoxy-3,5-diisopropylphenyl)-3-trifluoromethyl-octa-2,4,6-trienoic acid], for which the results for the Ki on RXRγ and at RXRα were 662 nM and 1300 nM, respectively.
For `CCCCOc1c(\C(C)=C/C=C/C(=C\C(=O)O)C(F)(F)F)cc(C(C)C)cc1C(C)C` [Example 4, (2E,4E,6Z)-7-(2-Butoxy-3,5-diisopropylphenyl)-3-trifluoromethyl-octa-2,4,6-trienoic acid], the Ki at RXRγ was 865 nM; at RXRα it was 9110 nM.
Take `CCOc1c(\C(=C/C=C/C(C)=C/C(=O)O)C(F)(F)F)cc(C(C)(C)C)cc1C(C)(C)C` [Example 5, (2E,4E,6E)-3-methyl-7-(2-ethoxy-3,5-di-tert-butylphenyl)-8,8,8-trifluoroocta-2,4,6-trienoic acid]: the Ki on RXRγ was found to be 184 nM; on RXRα, 38 nM.
